Values quoted from earlier work as cited in patent publication US10894026B2, “Pharmaceutical compositions comprising a fumaric acid ester and method for the preparation thereof” (PHARMATHEN S.A., priority 2016, dated 2021).
Counter-ions that a name gives are not always drawn.

For `COC(=O)/C=C/C(=O)OC` [Dimethyl fumarate, (E)-2-butenedioic acid dimethyl ester], the solubility in methanol (methanol) is listed as “sparingly soluble” and the solubility in water (water) is listed as “insoluble”.
